Legend:
[1] = Accelerated stability in the quantification of UA (uric acid); assay type: physicochemical; conditions: stored at 40° C., day 7, 14, 21 and 28; low concentration region of UA (2.1 mg/dL); FIG. 14
Protocol: At day 7, 14, 21 and 28, the reagents (wrapped with aluminum foil) stored in a chamber at 40° C. were taken out and brought back to room temperature. Also, the samples were taken out of a freezing chamber and naturally thawed at room temperature. They were mixed on a vortex mixer and used for the measurement. The absorbance was measurement similarly to the measurement of the linearity.

[2] = Solution stability under photo irradiation (optical stability); assay type: physicochemical; conditions: 0.25 mM in 50 mM MES buffer (pH 6.5), under fluorescent lamp, temporal change in absorbance at 650 nm; FIG. 1
Protocol: Solution stability under photo irradiation was tested as follows. Each sample solution of Compound A, B, C and D according to the invention and DA-67 was prepared with 50 mM MES buffer (pH 6.5) in the concentration of 0.25 mM. Temporal change in the absorbance at 650 nm of each reagent prepared placed under fluorescent lamp was monitored.

[3] = general statement on the conventional reagent; cited from earlier work

## CN(C)c1ccc2c(c1)Sc1cc(N(C)C)ccc1N2C(=O)NCCS(=O)(=O)O [Compound A]
[1]
  order of accelerated stabilities: Compound A according to the invention>Compound D according to the invention≈DA-67>Compound B according to the invention>Compound C according to the invention
[2]
  optical stability: DA-67 ≃Compound B according to the invention≈Compound C according to the invention<Compound A according to the invention<Compound D according to the invention

## CN(C)c1ccc2c(c1)Sc1cc(N(C)C)ccc1N2C(=O)NCCC(=O)O [Compound B]
[1]
  order of accelerated stabilities: Compound A according to the invention>Compound D according to the invention≈DA-67>Compound B according to the invention>Compound C according to the invention
[2]
  optical stability: DA-67 ≃Compound B according to the invention≈Compound C according to the invention<Compound A according to the invention<Compound D according to the invention

## CN(C)c1ccc2c(c1)Sc1cc(N(C)C)ccc1N2C(=O)NCC(=O)NCC(=O)O [Compound D]
[1]
  order of accelerated stabilities: Compound A according to the invention>Compound D according to the invention≈DA-67>Compound B according to the invention>Compound C according to the invention
[2]
  optical stability: DA-67 ≃Compound B according to the invention≈Compound C according to the invention<Compound A according to the invention<Compound D according to the invention

## CN(C)c1ccc2c(c1)Sc1cc(N(C)C)ccc1N2C(=O)NCC(=O)O [DA-67, reference compound]
[3]
  solubility in water (stated drawback): poor solubility in water
[1]
  order of accelerated stabilities: Compound A according to the invention>Compound D according to the invention≈DA-67>Compound B according to the invention>Compound C according to the invention
[2]
  optical stability: DA-67 ≃Compound B according to the invention≈Compound C according to the invention<Compound A according to the invention<Compound D according to the invention

— patent US10787571B2, “Oxidation color developable compound and oxidation color development reagent” (DOJINDO LABORATORIES, priority 2017, dated 2020)
